Values joined by “and” are separate entries in the source; they are usually repeats but may differ in a detail not shown here. Equal entries are not always repeated.
Columns and labels:
[1] = tested on: serum triglyceride levels; assay: 14-week open-label forced dose-escalation study of P5P in hypertensive diabetic patients: triglyceride level; assay type: in vivo, human; details: for Triglycerides, Percentage Difference: average Visit 12 vs Visit 1
Experimental: Overview—The study was a 14-week, open-label, forced, dose-escalation study of the efficacy and safety of P5P administered once daily over a dose range of 250 mg to 750 mg, for the treatment of mild to moderate hypertension and hyperlipidemia, in patients with coexisting diabetes mellitus.
Patient Definition—Patients meeting all of the inclusion criteria and none of the exclusion criteria were eligible for enrollment. The primary inclusion criteria were hypertension and diabetes. […] Other than having diabetes and hypertension, patients must have been in good health for their age. A history and physical examination must have been within age-related normal limits, or if abnormal, considered clinically insignificant in the opinion of the investigator. Laboratory tests (CBC with differential, prothrombin and partial thrombo-plastin times, platelet count, and urinalysis and blood chemistry panel), must have been normal, or if abnormal, considered clinically insignificant.
Exclusion criteria included the presence or history (past 12 months) of accelerated or malignant hypertension, as evidenced by hemorrhage and/or exudate, and/or papilloedema on funduscopic examination. Patients having a history of angioedema of the face, lips, tongue, glottis or larynx when treated with ACE inhibitors were excluded. Patients having a diastolic BP>114 mm Hg, and/or systolic BP>200 mm Hg at screening were excluded. Patients with similar readings at the end of the placebo lead-in period were dropped from further participation in the study. During the placebo lead-in period patients who had signs of bradycardia (<45 bpm) or a resting heart rate of >100 bpm were not advanced to the next stage of the study, but rather dropped from further participation.
Exclusion criteria included the presence or history (past 6 months) of myocardial infarction or cerebrovascular accident and clinically significant cardiac pathology such as congestive heart failure, cardio-genic shock, non-controlled arrhythmias, acute myocarditis or pericarditus, significant valvular or congestive heart disease and unstable angina pectoris; presence or evidence of atrioventricular block (second/third degree), or sick sinus syndrome, or any other conduction defect or abnormality including the presence/history of atrial fibrillation or flutter, associated with pre-excitation syndrome; clinically significant gastrointestinal disease, renal insufficiency (serum creatinine […]), hepatic disease, or electrolyte imbalance (serum potassium <3.5 or >5.3 mmol/L, serum sodium <136->145 mmol/L); presence of bronchial asthma or chronic obstructive pulmonary disease; or the presence of any clinically significant concomitant disease that in the opinion of the investigator could interfere with the patient's participation in the study, or confound the outcome variables. Patients having any clinically significant concomitant disease that could interfere with the patient's participation in the study, or confound the outcome variables were excluded. Patients with a history of alcohol abuse or illicit drug use in the 12 months prior to beginning this protocol were excluded. Patients with a terminal illness were excluded. Patients with an arm circumference >41 cm were excluded. Pregnant females, women who were breast-feeding or women of child-bearing potential must have used adequate contraception. Patients who have had therapy with an investigational compound within 30 days prior to entry into the study were excluded. The use of the following medications was cause for exclusion, each had to have been safely discontinued prior to the placebo lead-in phase of the study, and must been withheld until the protocol had been completed: all diuretics and antihypertensive drugs (including beta-blockers, calcium-channel blockers, vasodilators, ACE inhibitors), MAO inhibitors, all anti-arrhythmic drugs, digitalis, major tranquilizers, antidepressants, cimetidine, corticosteroids, and antineoplastics. […]

[2] = tested on: serum triglyceride levels; assay: Rabbit hypercholesteremic model (2% cholesterol diet, 7 weeks): serum triglycerides; assay type: in vivo, Male New Zealand white rabbits
Experimental: The anti-atherogenic effects of P5P alone and in combination with simvastatin in a rabbit hypercholesteremic model were determined. The study compared the effects of P5P and simvastatin alone and in combination on atherosclerotic lesion formation, lipid profile (total cholesterol, LDL, HDL, triglycerides and oxidized LDL), homocysteine levels and various markers of inflammation (CRP, IL-1β, IL-6, IFN-γ and TNF-α).
Animals—Male New Zealand white rabbits 2.0-3.0 kg.
Animal Feed—The normocholesterol diet is Co-op Complete Rabbit Feed manufactured by Federated Co-operatives Limited (Saskatchewan). The 2% cholesterol diet is Test Diet 0009459 MRab/2% Chol 3/16 manufactured by Purina Mills (USA).
The rabbits were fed the normocholesterol and 2% cholesterol diet ad libitum. All animals received a timothy cube after blood sampling. […]
Group 3: Hypercholesterol diet+P5P 10 mg/kg/day
Group 4: Hypercholesterol diet+simvastatin 5 mg/kg/day
Group 5: Hypercholesterol diet+P5P 10 mg/kg/day+simvastatin 5 mg/kg/day
The rabbits were fed a normocholesterol or hypercholesterol diet for a total of 7 weeks. The normocholesterol rabbits were treated once per day with 1 ml of ethanol and 5 ml of RO water via a nasogastric tube. The hypercholesterol animals were treated once per day with either P5P (10 mg/kg), simvastatin (5 mg/kg) or a combination of P5P and simvastatin (P5P 10 mg/kg; simvastatin 5 mg/kg) via a nasogastric tube. The P5P was dissolved in 5 ml of 0.05 N NaOH so that the pH of the solution is approximately 7. The simvastatin was dissolved in 1 ml of anhydrous ethanol.
Five ml of blood was collected from the marginal ear vein of the rabbits at 0, 2, 4 and 6 weeks. Prior to blood collection the animals were sedated with 1 mg/kg of acepromazine. Following collection, the serum was separated. The serum is aliquoted (500 μl) and frozen at −80° C. until used for the assaying various lipids (total cholesterol, LDL, HDL, triglycerides, oxidized LDL) and cytokines (CRP, IL-1β, IL-6, IFN-γ and TNF-α).
At 7 weeks, the animals were anesthetized and 10 ml of blood was collected. Then the animals were euthanized, and the heart and thoracic aorta removed. The hearts and aortas were frozen in liquid nitrogen or an ethanol dry ice bath and stored at −80° C. until analyzed.
Test Articles—P5P (pyridoxal 5′-phosphate monohydrate) was purchased from Sigma (P82870). Simvastatin is obtained from ACIC Fine Chemicals Inc. Two test compound vials were provided for each animal for each day. The first vial (small) was diluted in 1 ml of anhydrous ethanol. The second vial was diluted in either 5 ml of RO water or 5 ml of 0.05 N NaOH. The diluent for each vial was clearly marked on the vial. The test solutions were prepared fresh each day just before they were administered to the animals. The stock P5P was stored in a refrigerator at 4° C. under low light conditions. The simvastatin was stored following the manufacture recommendations. The individual test vials were stored in a refrigerator at 4° C. under low light conditions.
Test Article(s) Dose, Route of Administration and Duration—The rabbits were treated orally with the drugs, once per day for a total of 7 weeks. The contents of vial one (small; 1 ml) were given to the animals first, followed by the contents of vial 2 (large; 5 ml). The test compound treatments were followed by a 5 ml RO water chaser.

[3] = hypercholesterol diet, n = 5, P5P 10 mg/kg/day, simvastatin 5 mg/kg/day oral
[4] = rabbits fed the hypercholesterol diet, 7 weeks

Cc1ncc(COP(=O)(O)O)c(C=O)c1O [P5P, pyridoxal-5′-phosphate]
Triglycerides, Percentage Difference ([1]; Table 2): −22.1%
Triglycerides, Visit 1, Average ([1]; Table 2, average of 11 patients, screening, before treatment): 246.1 mg/dL
Triglycerides, Visit 12, Average ([1]; Table 2, average of 11 patients, week 14): 191.5 mg/dL
Triglycerides, Percentage Difference ([1]; Table 3, elevated triglycerides (>150 mg/dL)): −25.7%
Triglycerides, Visit 1, Average ([1]; Table 3, elevated triglycerides (>150 mg/dL), average of 7 patients, screening): 326.9 mg/dL
Triglycerides, Visit 12, Average ([1]; Table 3, elevated triglycerides (>150 mg/dL), average of 7 patients, week 14): 242.9 mg/dL
Triglycerides, Visit 1 ([1]; Table 3, patients with elevated triglycerides (>150 mg/dL), individual patients, screening, before treatment): 150 mg/dL and 601 mg/dL and 188 mg/dL and 180 mg/dL and 530 mg/dL and 442 mg/dL and 197 mg/dL
Triglycerides, Visit 12 ([1]; Table 3, patients with elevated triglycerides (>150 mg/dL), individual patients, week 14): 166 mg/dL and 268 mg/dL and 160 mg/dL and 305 mg/dL and 286 mg/dL and 302 mg/dL and 213 mg/dL
reduced triglyceride levels by (average) ([1]; hypertensive diabetic patients, end of 14 week study): approximately 22.1%
reduced triglyceride levels by (average) ([1]; patients having elevated triglyceride levels (>150 mg/dL) prior to the study): approximately 25.7%
average serum triglyceride levels as fraction of the levels observed in the control rabbits ([2]; end of the 7 week study period): about ⅓
Triglycerides, Week 2 [2, 3]: 1.244 mmol/L
Triglycerides, Week 4 [2, 3]: 1.530 mmol/L
Triglycerides, Week 6 [2, 3]: 1.066 mmol/L
Triglycerides, Week 7 ([2]; hypercholesterol diet, n = 5, P5P 10 mg/kg/day, simvastatin 5 mg/kg/day oral, end of study): 1.038 mmol/L
Triglycerides, Week 0 ([2]; hypercholesterol diet, n = 5, P5P 10 mg/kg/day, simvastatin 5 mg/kg/day oral, start of study): 1.168 mmol/L
comparison of serum triglyceride reduction between treatments [2, 4]: more effective than simvastatin treatment
effect on serum triglyceride levels vs untreated control rabbits [2, 4]: effective in reducing serum triglyceride levels

Source: patent publication US20060148763A1, “Compounds and methods for regulating triglyceride levels” (priority 2005, published 2006)
